Assay results published in patent US20170334899A1, “AMINO-SUBSTITUTED ISOTHIAZOLES” (Bayer Pharma Aktiengesellschaft, priority 2014, published 2017).

Columns and labels:
Type in all cases: cell-based
[1] = tested on: human cervical tumor cell line HeLa (ATCC CCL-2); assay: SAC-Formation - Nocodazole-Induced Assay; settings: Homo sapiens, HeLa, 24 h, HeLa cells, nocodazole 0.1 μg/ml together with test compound, decrease of mitotic cells (phospho-histone H3 Ser10)
From the text: (§1) The spindle assembly checkpoint assures the proper segregation of chromosomes during mitosis. Upon entry into mitosis, chromosomes begin to condensate which is accompanied by the phosphorylation of histone H3 on serine 10. Dephosphorylation of histone H3 on serine 10 begins in anaphase and ends at early telophase. Accordingly, phosphorylation of histone H3 on serine 10 can be utilized as a marker of cells in mitosis. Nocodazole is a microtubule destabilizing substance. Paclitaxel is a microtubule stabilizing compound. Thus, nocodazole as well as paclitaxel interfere with microtubule dynamics and mobilize the spindle assembly checkpoint. […] The mitotic breakthrough can be detected by the decrease of cells with phosphorylation of histone H3 on serine 10. This decline is used as a marker to determine the capability of compounds of the present invention to induce a mitotic breakthrough. The typical morphological alteration of nuclei with a prematurely completed mitosis after SAC-inhibition can be monitored via image analysis routines supporting those findings.
(§2) The nocodazole and paclitaxel variations were used to focus on compounds that are capable of inhibiting a SAC induced by both microtubule destabilization as well as microtubule stabilization. When SAC inducing agents and compounds are given simultaneously inhibitors that effectively block the SAC during formation or abrogation are identified. When cells are incubated with a SAC inducing agent and the SAC interfering compound is given after a defined time, inhibitors are identified that effectively block SAC abrogation.
(§3) Cultivated cells of the human cervical tumor cell line HeLa (ATCC CCL-2) were plated at a density of 1000 cells/well in a 1536-well microtiter plate in 2 μl PAA Ham's F12 Medium supplemented with 1% (v/v) glutamine, 1% (v/v) penicillin, 1% (v/v) streptomycin and 10% (v/v) fetal calf serum. After incubation overnight at 37° C., 10 μl/well nocodazole at a final concentration of 0.1 μg/ml were added to cells. Test compounds solubilized in dimethyl sulfoxide (DMSO) were added at various concentrations (0 μM, as well as in the range of 0.005 μM-20 μM; the final concentration of the solvent DMSO was 0.5% (v/v)). Cells were incubated for 24 h at 37° C. in the presence of test compounds in combination with nocodazole. Thereafter, cells were fixed in 4% (v/v) paraformaldehyde in phosphate buffered saline (PBS) at 4° C. overnight then permeabilized in 0.1% (v/v) Triton X™ 100 in PBS at room temperature for 20 min and blocked in 0.5% (v/v) bovine serum albumin (BSA) in PBS at room temperature for 15 min. After washing with PBS, 5 μl/well antibody solution (anti-phospho-histone H3 clone 3H10, FITC; Millipore, Cat#16-222; 1:1000 dilution) was added to cells, which were incubated for 2 h at room temperature. Afterwards, cells were washed with PBS and 5 μl/well solution of HOECHST 33342 dye (5 μg/ml) was added to cells and cells were incubated 15 min at room temperature in the dark. Cells were washed twice with PBS then covered with PBS and stored at 4° C. until analysis. Images were acquired with a PERKIN ELMER OPERA™ High-Content Analysis reader. Images were analyzed with image analysis software MetaXpress™ from Molecular devices utilizing the Mitotic Index application module. In this assay both labels HOECHST 33342 and phosphorylated Histone H3 on serine 10 were measured. HOECHST 33342 labels the DNA and is used to count the cell number. The staining of phosphorylated Histone H3 on serine 10 determines the number of mitotic cells. […] Otherwise cells were arrested at G2/M phase of the cell cycle progression. The raw assay data were further analyzed by four-parametric hill equation using Genedata's Assay Analyzer and Condoseo software.

[2] = tested on: human cervical tumor cell line HeLa (ATCC CCL-2); assay: SAC-Formation - Paclitaxel-Induced Assay; settings: Homo sapiens, HeLa, 24 h, HeLa cells, paclitaxel 0.05 μM, test range 0.005 μM-20 μM, read-out: IC50 [mol/l] SAC-Formation - Paclitaxel-Induced Assay
From the text: as §1, §2
Cultivated cells of the human cervical tumor cell line HeLa (ATCC CCL-2) were plated at a density of 1000 cells/well in a 1536-well microtiter plate in 2 μl PAA
as §3, with “Ham's” for “Cultivated cells of the human cervical tumor cell line HeLa (ATCC CCL-2) were plated at a density of 1000 cells/well in a 1536-well microtiter plate in 2 μl PAA Ham's”, “paclitaxel” for “nocodazole”, “0.05 μM” for “0.1 μg/ml”, “μM -20” for “μM-20”, “paclitaxel.” for “nocodazole.”

HeLa = assay: Proliferation assay (crystal violet), HeLa; settings: Homo sapiens, HeLa, 96 h, HeLa cells; 4 days incubation; crystal violet staining; read-out: IC50 inhibition of proliferation, HeLa
Protocol: Cultivated tumor cells (cells were ordered from ATCC, except HeLa-MaTu and HeLa-MaTu-ADR, which were ordered from EPO-GmbH, Berlin) were plated at a density of 1000 to 5000 cells/well, depending on the growth rate of the respective cell line, in a 96-well multititer plate in 200 μL of their respective growth medium supplemented 10% fetal calf serum. After 24 hours, the cells of one plate (zero-point plate) were stained with crystal violet (see below), while the medium of the other plates was replaced by fresh culture medium (200 μl), to which the test substances were added in various concentrations (0 μM, as well as in the range of 0.001-10 μM; the final concentration of the solvent dimethyl sulfoxide was 0.5%). The cells were incubated for 4 days in the presence of test substances. Cell proliferation was determined by staining the cells with crystal violet: the cells were fixed by adding 20 μl/measuring point of an 11% glutaric aldehyde solution for 15 minutes at room temperature. After three washing cycles of the fixed cells with water, the plates were dried at room temperature. The cells were stained by adding 100 μl/measuring point of a 0.1% crystal violet solution (pH 3.0). After three washing cycles of the stained cells with water, the plates were dried at room temperature. The dye was dissolved by adding 100 μl/measuring point of a 10% acetic acid solution. Absorbtion was determined by photometry at a wavelength of 595 nm. The change of cell number, in percent, was calculated by normalization of the measured values to the aborbtion values of the zero-point plate (=0%) and the absorbtion of the untreated (0 μm) cells (=100%). The IC50 values were determined by means of a 4 parameter fit.

Row | IC50 [1] [nM] | IC50 [2] [µM] | IC50 (HeLa) [µM] | Compound
1 | 440 | 1.5 | 10 | C#CCN(C)C(=O)c1cccc(NC(=O)c2c(C)nsc2Nc2cnc3ccccc3n2)c1 [Example 62, 3-Methyl-N-{3-[methyl(prop-2-yn-1-yl)carbamoyl]phenyl}-5-(quinoxalin-2-ylamino)-1,2-thiazole-4-carboxamide]
2 | 1400 | 20 | 10 | Cc1nsc(Nc2cnc3ccccc3n2)c1C(=O)Nc1cccc(C(=O)NCCN2CCOCC2)c1 [Example 71, 3-Methyl-N-(3-{[2-(morpholin-4-yl)ethyl]carbamoyl}-phenyl)-5-(quinoxalin-2-ylamino)-1,2-thiazole-4-carboxamide]
3 | 2200 | 10 | 10 | CC(=O)N1CCN(C(=O)c2cccc(NC(=O)c3c(C)nsc3Nc3cnc4ccccc4n3)c2)CC1 [Example 70, N-{3-[(4-Acetylpiperazin-1-yl)carbonyl]phenyl}-3-methyl-5-(quinoxalin-2-ylamino)-1,2-thiazole-4-carboxamide]
4 | 16 | 0.67 | 10 | CCN(C)C(=O)c1cccc(NC(=O)c2c(C)nsc2Nc2cnc3ccccc3n2)c1 [Example 67, N-{3-[Ethyl(methyl)carbamoyl]phenyl}-3-methyl-5-(quinoxalin-2-ylamino)-1,2-thiazole-4-carboxamide]
5 | 720 | 20 | 10 | CC(=O)NCCNC(=O)c1cccc(NC(=O)c2c(C)nsc2Nc2cnc3ccccc3n2)c1 [Example 66, N-(3-{[2-(Acetylamino)ethyl]carbamoyl}phenyl)-3-methyl-5-(quinoxalin-2-ylamino)-1,2-thiazole-4-carboxamide]
6 | 1300 | 5.3 | 10 | COC(=O)CCNC(=O)c1cccc(NC(=O)c2c(C)nsc2Nc2cnc3ccccc3n2)c1 [Example 74, Methyl N-[3-({[3-methyl-5-(quinoxalin-2-ylamino)-1,2-thiazol-4-yl]carbonyl}amino)benzoyl]-β-alaninate]

The remaining lines, values behind:

Row | Compound | IC50 [1] [nM] | IC50 [2] [µM] | IC50 (HeLa) [µM]
7 | Cc1nsc(Nc2cnc3ccccc3n2)c1C(=O)Nc1cccc(C(=O)Nc2ccc3c(c2)OCO3)c1 [Example 63, N-[3-(1,3-Benzodioxol-5-ylcarbamoyl)phenyl]-3-methyl-5-(quinoxalin-2-ylamino)-1,2-thiazole-4-carboxamide] | 190 | 0.44 | 3.6
8 | Cc1nsc(Nc2cnc3ccccc3n2)c1C(=O)Nc1cccc(C(=O)N2CCN(CCc3ccccn3)CC2)c1 [Example 94, 3-Methyl-N-[3-({4-[2-(pyridin-2-yl)ethyl]piperazin-1-yl}-carbonyl)phenyl]-5-(quinoxalin-2-ylamino)-1,2-thiazole-4-carboxamide] | 940 | 8.4 | 10
9 | COCCN1CCN(C(=O)c2cccc(NC(=O)c3c(C)nsc3Nc3cnc4ccccc4n3)c2)CC1 [Example 91, N-(3-{[4-(2-Methoxyethyl)piperazin-1-yl]carbonyl}phenyl)-3-methyl-5-(quinoxalin-2-ylamino)-1,2-thiazole-4-carboxamide] | 42 | 0.23 | 10
10 | Cc1nsc(Nc2cnc3ccccc3n2)c1C(=O)Nc1cccc(C(=O)N2CCN(c3ccccc3F)CC2)c1 [Example 78, N-(3-{[4-(2-Fluorophenyl)piperazin-1-yl]carbonyl}phenyl)-3-methyl-5-(quinoxalin-2-ylamino)-1,2-thiazole-4-carboxamide] | 470 | 2 | 7
11 | Cc1nsc(Nc2cnc3ccccc3n2)c1C(=O)Nc1cccc(C(=O)N2CCN(c3ccccc3C#N)CC2)c1 [Example 80, N-(3-{[4-(2-Cyanophenyl)piperazin-1-yl]carbonyl}phenyl)-3-methyl-5-(quinoxalin-2-ylamino)-1,2-thiazole-4-carboxamide] | 1800 | 3.5 | 8.3
12 | CC(=O)Nc1ccccc1NC(=O)c1cccc(NC(=O)c2c(C)nsc2Nc2cnc3ccccc3n2)c1 [Example 84, N-(3-{[2-(Acetylamino)phenyl]carbamoyl}phenyl)-3-methyl-5-(quinoxalin-2-ylamino)-1,2-thiazole-4-carboxamide] | 96 | 8.4 | 10
13 | Cc1nsc(Nc2cnc3ccccc3n2)c1C(=O)Nc1cccc(C(=O)NCCCN2CCCC2=O)c1 [Example 60, 3-Methyl-N-(3-{[3-(2-oxopyrrolidin-1-yl)propyl]carbamoyl}phenyl)-5-(quinoxalin-2-ylamino)-1,2-thiazole-4-carboxamide] | 310 | 0.24 | 10
